Results on one compound are retold here after patent publication US9095535B2, “GABA release-regulating agent in cerebellum” (KOREA INSTITUTE OF SCIENCE AND TECHNOLOGY, priority 2009, dated 2015).

For test [1], the system named is GABAc receptors. The experiment in a line: Patch clamp of GABAc expressing HEK293 cells challenged with 100 μM GABA. It is filed as cell-based. Particulars: 100 μM GABA in absence or presence of 100 μM NFA and 100 μM NPPB. How it is done: FIGS. 7a and 7b show the results when GABAc expressing HEK293 cells were patch clamped and challenged with 100 μM GABA in the absence and presence of 100 μM NFA and 100 μM NPPB; and
In FIGS. 7a and 7b, GABAc expressing HEK293 cells were patch clamped and challenged with 100 μM GABA in the absence or presence of 100 μM NFA and 100 μM NPPB.
Background: The patch-clamp technique gives a direct electrical read-out from membranes.

The target of test [2] is T1, Best1 channel (Mus musculus, UniProt O88870).
T1 construct: from tissue; host or cells: mouse cerebellar slices / sections (Bergmann glial cells)
T1 sequence (O88870 1-551): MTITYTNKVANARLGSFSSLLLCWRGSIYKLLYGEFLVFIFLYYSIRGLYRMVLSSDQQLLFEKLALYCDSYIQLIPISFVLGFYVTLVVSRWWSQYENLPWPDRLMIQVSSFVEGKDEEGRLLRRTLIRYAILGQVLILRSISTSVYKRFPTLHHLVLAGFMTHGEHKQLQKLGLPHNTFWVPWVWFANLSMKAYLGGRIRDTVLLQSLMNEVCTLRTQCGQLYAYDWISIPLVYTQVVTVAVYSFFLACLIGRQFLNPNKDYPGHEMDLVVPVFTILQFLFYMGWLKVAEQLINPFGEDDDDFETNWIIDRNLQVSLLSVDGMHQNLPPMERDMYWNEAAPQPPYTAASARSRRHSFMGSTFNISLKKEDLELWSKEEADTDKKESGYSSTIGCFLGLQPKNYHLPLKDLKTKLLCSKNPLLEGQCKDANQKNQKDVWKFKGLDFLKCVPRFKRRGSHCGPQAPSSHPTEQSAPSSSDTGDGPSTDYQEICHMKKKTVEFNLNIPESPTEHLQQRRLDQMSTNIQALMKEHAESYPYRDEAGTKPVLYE
It is filed as cell-based. Particulars: NPPB 50 μM; naïve GFAP-GFP mice; ramp protocol, Vh=−70 mV. How it is done:
Brain slices were prepared as described in Rossi et al., 2003. For slice recording, either approximately P28 days old or more than 8 weeks old mice were used. Animals were deeply anesthetized with halothane. After decapitation, the brain was quickly excised from the skull and submerged in ice-cold cutting solution (in mM): 250 Sucrose, 26 NaHCO3, 10 D(+)-Glucose, 4 MgCl2, 3 myo-inositol, 2.5 KCl, 2 Sodium pyruvate, 1.25 NaH2PO4, 0.5 Ascorbic acid 0.1 CaCl2, 1 Kynurenic acid, pH 7.4. All solutions were gas-treated with 95% O2-5% CO2. After trimming both sides of vermis, several parasagittal slices with […] thicknesses containing cerebellar lobes were cut using a microtome (Leica VT 1000) and transferred to extracellular ACSF solution (in mM); 126 NaCl, 24 NaHCO3, 1 NaH2PO4, 2.5 KCl, 2.5 CaCl2, 2 MgCl2, 10 D(+)-Glucose, pH 7.4. Slices were incubated for one hour at least at room temperature.
For recording, slices were transferred to an electrophysiological recording chamber (RC-26G, Warner Instruments) which is continuously superfused with ASCF (artificial cerebrospinal fluid, sigma) solution (flow rate; 2 ml/min) and controlled by flower controller (Synaptosoft) and a vacuum pump (Charles Austen, model Capex 8C). […] Fluorescence images were viewed with mercury lamp (Olympus, U-RFL-T). […]

Test [3] relates to GABAA receptor. Nature of the test: GABA-induced whole cell current in cerebellar granule cells. It is filed as cell-based. Particulars: NPPB application 2 and 5 min; wild B6 mouse granule cells. How it is done:
For puffing experiment, glass electrode (5-6 MΩ) filled with […] was positioned near to the patched granular cell and puffed briefly for 500 ms by Picospritzer III (Parker instrumentation) connected with MiniDigi (Molecular Device).
The magnitudes of GABA induced current with the NPPB application (2 and 5 min) are also shown.

The target in test [4] is T2, hBest1 (Homo sapiens, UniProt O76090).
T2 sequence (O76090 1-585): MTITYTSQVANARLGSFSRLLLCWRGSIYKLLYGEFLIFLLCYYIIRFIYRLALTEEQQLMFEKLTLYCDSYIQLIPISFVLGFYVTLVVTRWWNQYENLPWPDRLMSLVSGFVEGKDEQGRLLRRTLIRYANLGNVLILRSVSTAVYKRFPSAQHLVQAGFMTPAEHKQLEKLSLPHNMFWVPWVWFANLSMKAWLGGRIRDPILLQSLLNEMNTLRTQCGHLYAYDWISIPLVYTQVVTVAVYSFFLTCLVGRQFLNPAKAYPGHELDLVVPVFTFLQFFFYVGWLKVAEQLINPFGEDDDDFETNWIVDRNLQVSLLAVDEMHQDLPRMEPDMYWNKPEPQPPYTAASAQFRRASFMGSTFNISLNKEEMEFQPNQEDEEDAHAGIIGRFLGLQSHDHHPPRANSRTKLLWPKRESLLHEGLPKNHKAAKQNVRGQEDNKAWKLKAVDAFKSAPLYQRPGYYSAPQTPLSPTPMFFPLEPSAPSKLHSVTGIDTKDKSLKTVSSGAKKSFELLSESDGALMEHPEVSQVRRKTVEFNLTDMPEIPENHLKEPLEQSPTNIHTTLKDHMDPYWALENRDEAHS
Particulars: cited from earlier work.

The structures appear in SMILES notation.

For the compound `O=C(O)c1cc([N+](=O)[O-])ccc1NCCCc1ccccc1` [NPPB, 5-nitro-2(3-phenylpropylamino)-benzoic acid], the “GABA response of GABAc expressing HEK293 cells” value in test [1] is given as “do not have significant impact”. Also, in test [2], the “Anion current in Bergmann glial cells” value is on record as “decreased”. The “GABA-induced whole cell current” value in test [3] is “did not have any effect”. Also, in test [4], the “block of hBest1 Cl− channel” value is given as “readily blocked”.
